{"source": "patent US20160114062A1", "about": "“TREATMENT OF IMMUNE, INFLAMMATORY AND DEGENERATIVE ARTHRITIDES WITH TIN-117m” (RHEUMCO LLC, priority 2013, published 2016)", "key": {"[1]": {"experiment": "Biodistribution, 2nd study (HSA Sn-117m annexin) in collagen-induced arthritic rats", "type": "in vivo, Rat", "details": "dose 50 (mCi), at sacrifice Day 14", "description": "(§1) In order to test the efficacy of the present invention, a standard arthritic rat model was employed. Specifically, rodents were injected with collagen, which induced a reaction similar to rheumatoid arthritis. […] Two different studies were conducted.\n(§2) At around day 14, the animals were sacrificed and tissues sent for histological analyses."}, "[2]": {"test_system": "standard arthritic rat model (collagen induced rheumatoid arthritis-like)", "experiment": "Histopathology of knees, 2nd study (HSA Sn-117m annexin)", "type": "in vivo", "details": "for Bone Resorption Score / Cartilage Damage Score / Inflammation Score / Pannus Score: score 0-5, 0 = normal, 5 = severe", "description": "as §1, §2"}, "[3]": {"details": "L knee (injected), ~50 uCi into L synovium"}, "[4]": {"details": "R knee, ~50 uCi into L synovium"}, "[5]": {"details": "mean of all animals, both knees, both routes, score 0-5"}}, "note": "“And” between values parts separate entries of the source, which are not always exact repeats. Equal values may be shown once."}
{"substance": "Sn-117m Annexin: High specific activity tin-117m attached to annexin V through an aminobenzyl DOTA linker", "values": [{"measurement": "Right Leg (% ID)", "setting": "[1]; L Synovium injection", "value": 0.1, "unit": "% ID"}, {"measurement": "Left leg (% ID)", "setting": "[1]; Retro-orbital injection", "value": 0.1, "unit": "% ID"}, {"measurement": "Right Leg (% ID)", "setting": "[1]; Retro-orbital injection", "value": 0.1, "unit": "% ID"}, {"measurement": "Summed Histopathology Scores", "setting": "[2]; [3]", "value": 9}, {"measurement": "Bone Resorption Score", "setting": "[2]; [3]", "value": 1}, {"measurement": "Cartilage Damage Score", "setting": "[2]; [3]", "value": 2}, {"measurement": "Inflammation Score", "setting": "[2]; [3]", "value": 5}, {"measurement": "Pannus Score", "setting": "[2]; [3]", "value": 1}, {"measurement": "Summed Histopathology Scores", "setting": "[2]; L knee, ~50 uCi retro-orbital", "value": "8 and 4"}, {"measurement": "Cartilage Damage Score", "setting": "[2]; L knee, ~50 uCi retro-orbital", "value": "1 and 0.5"}, {"measurement": "Inflammation Score", "setting": "[2]; L knee, ~50 uCi retro-orbital", "value": "5 and 3"}, {"measurement": "Pannus Score", "setting": "[2]; L knee, ~50 uCi retro-orbital", "value": "1 and 0.5"}, {"measurement": "Summed Histopathology Scores", "setting": "[2]; [4]", "value": "9 and 7.5"}, {"measurement": "Bone Resorption Score", "setting": "[2]; [4]", "value": "1 and 0.5"}, {"measurement": "Cartilage Damage Score", "setting": "[2]; [4]", "value": "2 and 1"}, {"measurement": "Inflammation Score", "setting": "[2]; [4]", "value": 5}, {"measurement": "Pannus Score", "setting": "[2]; [4]", "value": 1}, {"measurement": "Cartilage Damage Score", "setting": "[2]; R knee, ~50 uCi retro-orbital", "value": 0.5}, {"measurement": "Pannus Score", "setting": "[2]; R knee, ~50 uCi retro-orbital", "value": 0.5}, {"measurement": "Effectiveness (in words)", "setting": "[2]; administered directly into the synovium, second study", "value": "appears to be effective"}, {"measurement": "Summed Histopathology Scores, Mean", "setting": "[2]; mean of all animals, both knees, both routes", "value": 7.04}, {"measurement": "Bone Resorption Score, Mean", "setting": "[2]; [5]", "value": 0.75}, {"measurement": "Cartilage Damage Score, Mean", "setting": "[2]; [5]", "value": 1.33}, {"measurement": "Inflammation Score, Mean", "setting": "[2]; [5]", "value": 4.04}, {"measurement": "Pannus Score, Mean", "setting": "[2]; [5]", "value": 0.92}]}
